Experimental data published in US4751224A, “Treatment of metastasis” (Brown University Research Foundation, priority 1986, dated 1988).
“Also recorded” adds a separate entry of the source. Where two headings read alike, the source gives them in different places.

Experiments:
[1] = system: human platelet aggregation induced by B16-F10 melanoma cells; assay: B16-F10 melanoma cell-induced human platelet aggregation in vitro (light transmission in platelet-rich plasma); assay type: cell-based
Protocol: A mouse melanoma subline, B16-F10, (highly metastatic to the lungs) was obtained from EG & G Mason Research Institute, Worcester, MA, and adapted to growth in cell culture. The cultured cells were harvested by 1 min of trypsinization (0.25% trypsin-0.1% EDTA) or with the use of a rubber policeman, washed gently three times with Hank's balanced salts solution (HBBS, free of Ca^++ and Mg^++). […] Freshly drawn whole blood from healthy adult human donors was anticoagulated with heparin (5 units/ml). […] Platelet-rich plasma (PRP) was separated by centrifugation of the whole blood and platelet aggregation was measured in PRP by recording the increase in light transmission after the addition of the tumor cells.
Washed B16-F10 cell suspensions (2×10^7 /ml) were treated with potato apyrase (1 unit/ml) for about 5 min to degrade exogenous adenine nucleotides. Fifty microliters of the cell suspension was then added to the platelet-rich plasma after an incubation of 5 min with (A) 5 microliters DMSO (10% in saline) (Control) or (B) 5 microliters forskolin (200 micro Molars in DMSO 10% in saline). Final concentration of forskolin in PRP (500 microliters) was 2 micromolars.
The in vitro experimental procedure of Example I above was repeated using a combination of forskolin and oxagrelate. In this example the cell suspension was added to platelet-rich plasma incubated with a mixture of forskolin and oxagrelate.

mice [2] = conditions: cited from earlier work
[3] = system: membrane adenylate cyclase; conditions: human platelets, via stimulation of membrane adenylate cyclase; cited from earlier work
B16-F10 melanoma cells = assay: pulmonary tumor colonization after tail vein injection of B16-F10 cells; assay type: in vivo, mouse (C57BL/6)
Protocol: (§1) Washed B16-F10 tumor cells (2 or 3×10^5) in 100 microliters Hanks balanced salts solution were injected from the tail vein 60 min (Exp. 1) or 30 min (Exp. 2, 3) after i.p. injection of 200 microliters DMSO (20 percent in saline) in control group; or forskolin (5 mM) prepared in DMSO (100 percent) and diluted to 1 mM with saline just before injection. The mice were sacrificed after 9 days (Exp. 1) or 14 days (Exp. 2, 3) and the lungs removed for examination. The tumor foci were counted with the help of a dissecting microscope.
The in vivo experimental procedure of Example II above was also repeated using a combination of forskolin and oxagrelate.

platelet aggregation [4] = conditions: induced by a wide variety of aggregation stimulators; cited from earlier work
mice [5] = assay: overt toxicity observation in mice after i.p. administration; assay type: in vivo, mouse (C57BL/6); conditions: 82 micrograms/mouse
Protocol: as §1, with “microscope. […] FIG. 2 presents typical specimens of lungs from untreated and forskolin-treated mice of experiments 2 and 3.” for “microscope.”

[6] = system: B16 amelanotic melanoma cells; assay: PGI2 reduction of pulmonary tumor colonization by tail vein injected B16 amelanotic melanoma cells (Honn et al.); assay type: in vivo, mouse; conditions: PGI2 (Honn) compared with forskolin (applicant)
From the text: Since tumor cell-platelet interactions play a role in tumor metastasis, several laboratories have examined anticoagulants and anti-aggregating agents, such as heparin, warfarin (Hagmar and Norrby, Vol. 5 Int. J. Cancer, pp. 72-84, [1970]; Lione and Bosmann, Vol. 2 Cell Biol. Int. Res., pp. 81-86 [1972]; Hoover and Ketcham, Vol. 35 Cancer, pp. 5-14 [1975]); aspirin (Gasic et al., Lancet II, pp. 932-933 [1972]; Wood and Hilgard, Lancet II, pp. 1416-1416 [1972]; Hilgard et al., Vol. 86 Z. Krebsforsch., pp. 243-250 [1976]) and dipyridamole (Hilgard in Interaction of Platelets and Tumor Cells, pp. 143-158, Jameson [ed.] [1982]; Ambrus et al. in Platelets: A Multidisciplinary Approach, pp. 467-48, de Gaetano [ed.] [1982]) to reduce the incidence of tumor metastasis without treating the tumor per se in experimental animal models. However, the results of many of these studies were inconclusive.

platelet aggregation [7] = assay: inhibition of platelet aggregation in vitro; assay type: cell-based, human; conditions: molar basis, PGI2 compared to forskolin
[8] = system: B16 amelanotic melanoma cells; conditions: cited from earlier work

| Compound | inhibition at 0.4 µM ([1]; Homo sapiens, B16-F10, forskolin 0.4 micromolar alone, read-out: inhibition of tumor cell-induced platelet aggregation) [%] | melanoma cell-induced human platelet aggregation, inhibition ([1]; forskolin 2 micromolar, 5 min preincubation of PRP, B16-F10 2×10^6/ml) | in vitro inhibitory effect in combination with 2-fluoroadenosine ([1]; forskolin combined with 2-fluoroadenosine (F-Ado)) | in vitro inhibitory effect in combination with prostaglandin E ([1]; forskolin combined with prostaglandin E) | LD 50 (mice [2]; i.p.) [mg/kg] | LD 50 (mice [2]; per OS) | increase of intracellular concentration of cyclic AMP [3] | Median number of pulmonary tumor foci (B16-F10 melanoma cells; Experiment 1, 2×10^5 cells/mouse, i.p. 60 min before, 9 days, control median 189) | Median number of pulmonary tumor foci (B16-F10 melanoma cells; Experiment 2, 3×10^5 cells/mouse, i.p. 30 min before, 14 days, control median 210) | Median number of pulmonary tumor foci (B16-F10 melanoma cells; Experiment 3, 3×10^5 cells/mouse, i.p. 30 min before, 14 days, control median >600 (estimated)) | No. of pulmonary tumor foci (per mouse) (B16-F10 melanoma cells; Experiment 3, 3×10^5 cells/mouse, i.p. 30 min before, 14 days, mice about 5 weeks old, control >600 (estimated)) | appearance of tumor foci (dissecting microscope) (B16-F10 melanoma cells; experiments 2 and 3, compared with untreated mice) | direct effect on melanoma cells (B16-F10 melanoma cells; forskolin i.p. prior to tail vein injection of cells) | inhibition of human platelet aggregation (platelet aggregation [4]) | overt signs of toxicity (mice [5]) | potency as inhibitor of pulmonary tumor metastasis, PGI2 versus forskolin [6] | potency in inhibiting platelet aggregation in vitro relative to forskolin (platelet aggregation [7]) | decrease in pulmonary tumor foci ([8]; PGI2 50-200 micrograms/mouse (Honn)) | pulmonary tumor colonization ([8]; PGI2, i.v. injection (Honn et al. 1981)) | inhibition at 20 µM ([1]; Homo sapiens, B16-F10, oxagrelate 20 micromolar alone, read-out: inhibition of tumor cell-induced platelet aggregation) [%] |
| --- | --- | --- | --- | --- | --- | --- | --- | --- | --- | --- | --- | --- | --- | --- | --- | --- | --- | --- | --- | --- |
| C=C[C@@]1(C)CC(=O)[C@]2(O)[C@@]3(C)[C@@H](O)CCC(C)(C)[C@@H]3[C@H](O)[C@H](OC(C)=O)[C@@]2(C)O1 [forskolin, 7 beta-acetoxy-8,13-epoxy-1 alpha,6 beta,9 alpha trihydroxy-labd-14-en-11-one] | 20 | strongly inhibits; also recorded: strongly blocked | potentiated | potentiated | 105 | 3,100 mg/kg | several-fold | 3.1 | 1 | 149.5 | 219,250,281 | smaller and more superficial | without effecting the melanoma cells directly | blocks human platelet aggregation | No overt signs of toxicity | similar |  |  |  |  |
| CCCCC[C@H](O)/C=C/[C@@H]1[C@H]2C/C(=C/CCCC(=O)O)O[C@H]2C[C@H]1O [PGI2, prostacyclin] |  |  |  |  |  |  |  |  |  |  |  |  |  |  |  | similar | several hundred-fold more potent | greater than 50% | reduces pulmonary tumor colonization |  |
| CCOC(=O)c1c(C)cc2c(CO)nnc(O)c2c1C [oxagrelate] |  |  |  |  |  |  |  |  |  |  |  |  |  |  |  |  |  |  |  | 20 |
